Laboratory results from US20080293774A1, “Treatment of the Symptoms of Bladder Irritation” (UROGENE, priority 2005, published 2008).

How the values were obtained:
[1] = test system: rhythmic reflex contractions of the bladder; assay: complete bladder-outlet obstruction (isovolumetric) model of overactive bladder in the rat; assay type: in vivo, female Wistar rats; details: i.v.; for maximum intravesical pressure: all doses tested (HP183 0.3, 1, 3 mg/kg; HP184 1, 3, 10 mg/kg; HP749 1.6, 3.5, 10.5 mg/kg)
Excerpt: The compounds of Table 1 have been evaluated in a conventional animal model of overactive bladder: the complete bladder-outlet obstruction model in the rat, referred to as “isovolumetric” model (K. Sugaya, Y. Ogawa, O, Nishizawa, W C De Groat, Decrease in intravesical saline volume during isovolumetric cystometry in the rat, Neurourol. Urodyn, 1997, 16:125-132). In this model, rhythmic reflex contractions of the bladder are induced in female Wistar rats in which the urethra has been ligatured.
The rats are anaesthetized and implanted with a jugular catheter for the intravenous administration of the compounds. A transurethral catheter is introduced into the bladder, through the bladder dome, so as to allow the infusion of a saline solution and measurement of the intravesical pressure. The urethra is ligatured in order to close off the bladder.
The bladder is infused (50 μl/min) via the transurethral catheter with a saline solution until uninhibited rhythmic contractions appear. The infusion is then stopped and the intravesical pressure is measured for a period of 60 min preceding the injection of the study compounds. The compounds to be studied are then injected via the jugular catheter, and the intravesical pressure is recorded for a period of 60 min. The intravenous administration of the compounds during this test limits the metabolization of HP749 and of HP184 to HP748 and HP183, respectively. The animals are sacrificed at the end of the experiment by means of an overdose of pentobarbital. A scheme of the experiment is given below.
The data from the experiment are analysed with the ELPHY software (a free version of which is accessible at the following address: http://www.unic.cnrs-gif.fr/software/software.htm). The parameters analysed are as follows: • Maximum intravesical pressure (MP, expressed in mmHg) • Threshold pressure (ThP, expressed in mmHg) compared with the carrier (FIG. 2B).

bladder contractions = details: rats suffering from bladder irritation; cited from earlier work
[2] = human; cited from earlier work
[3] = all doses tested (HP183 0.3, 1, 3 mg/kg; HP184 1, 3, 10 mg/kg), 60 min recording, compared with the carrier
[4] = 60 min recording, compared with the carrier

| Structure (SMILES) | frequency of rhythmic isovolumetric contractions [1, 3] | maximum intravesical pressure [1, 4] | frequency of bladder contractions related to bladder irritation (bladder contractions) | frequency of bladder contractions ([1]; from the first dose of 0.3 mg/kg, dose-dependent) | metabolite formed by biotransformation [2] | frequency of rhythmic isovolumetric contractions ([1]; highest dose (10.5 mg/kg)) | frequency of rhythmic isovolumetric contractions ([1]; lowest dose (HP749 1.6 mg/kg)) |
| --- | --- | --- | --- | --- | --- | --- | --- |
| Cc1cn(Nc2ccncc2F)c2ccccc12 [HP183, N-(3-fluoro-4-pyridinyl)-3-methyl-1H-indol-1-amine] | no statistically significant effect | no statistically significant effect |  |  |  |  |  |
| CCCN(c1ccncc1F)n1cc(C)c2ccccc21 [HP184, N-(3-fluoro-4-pyridinyl)-N-propyl-3-methyl-1H-indol-1-amine] | no statistically significant effect | no statistically significant effect | slightly decreasing |  |  |  |  |
| c1ccc2c(c1)ccn2Nc1ccncc1 [HP748, N-(4-pyridinyl)-1H-indol-1-amine] |  |  |  | considerably and statistically significantly decreased |  |  |  |
| CCCN(c1ccncc1)n1ccc2ccccc21 [HP749, N-propyl-N-(4-pyridinyl)-1H-indol-1-amine] |  | did not demonstrate any effect |  |  | metabolized in human to compound (I) | increasing | decreasing |
